Measurements taken from patent US8273774B2, “Phenoxypyridinylamide compounds” (AstraZeneca AB, priority 2008, dated 2012).
Where a name gives a salt, the structure may show the parent alone.

Biological target: recombinant Human Phosphodiesterase B2 (PDE4B2) (Homo sapiens, UniProt Q07343)
Test: Human Phosphodiesterase B2 Radiometric Assay
Type: biochemical
Conditions: 0.1 μg/mL recombinant PDE4B2; preincubated at 30 C for 30 min; [3H]cyclic AMP 8 nM, stopped after 20 min; yttrium silicate SPA beads; read-out: PDE4B2 pIC50 (converted)
Summary of the method: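 Compounds preincubated 30 min at 30 C with 0.1 μg/mL recombinant PDE4B2 in 50 mM HEPES pH 7.5, 8.3 mM MgCl2, 1.7 mM EGTA, 0.01% Brij 35.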

recombinant Human Phosphodiesterase B2 (PDE4B2), sequence (Q07343 1-564 isoform Q07343-2): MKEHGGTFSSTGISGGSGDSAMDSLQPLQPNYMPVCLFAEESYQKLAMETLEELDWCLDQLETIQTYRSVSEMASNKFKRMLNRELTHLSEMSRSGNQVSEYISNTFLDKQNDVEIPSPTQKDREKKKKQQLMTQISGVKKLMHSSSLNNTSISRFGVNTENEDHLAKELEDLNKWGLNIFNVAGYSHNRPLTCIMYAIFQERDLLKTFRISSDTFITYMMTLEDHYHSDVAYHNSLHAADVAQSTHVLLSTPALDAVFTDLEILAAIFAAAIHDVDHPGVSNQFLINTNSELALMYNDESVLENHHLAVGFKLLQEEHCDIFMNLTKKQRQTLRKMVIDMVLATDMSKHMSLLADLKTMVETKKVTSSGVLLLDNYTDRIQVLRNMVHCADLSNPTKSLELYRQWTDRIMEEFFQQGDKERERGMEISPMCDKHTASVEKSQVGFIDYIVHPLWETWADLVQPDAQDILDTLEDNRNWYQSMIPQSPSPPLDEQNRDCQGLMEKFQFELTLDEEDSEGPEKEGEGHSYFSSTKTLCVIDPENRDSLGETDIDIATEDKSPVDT

| SMILES | IC50 [pM] |
| --- | --- |
| Cc1cc(C(=O)N[C@H]2CC[C@@H](NC(=O)c3cc(F)cnc3Oc3cccc(-c4cccc(CCN5C[C@@H](C)N[C@@H](C)C5)c4)c3)CC2)nn1C [Example 103, N-((1s,4s)-4-(1,5-dimethyl-1H-pyrazole-3-carboxamido)cyclohexyl)-2-(3′-(2-((3S,5R)-3,5-dimethylpiperazin-1-yl)ethyl)biphenyl-3-yloxy)-5-fluoronicotinamide] | 31.6 |
| Cc1nc(C(=O)N[C@H]2CC[C@@H](NC(=O)c3cc(F)cnc3Oc3cccc(-c4cccc(CN5C[C@@H](C)N[C@@H](C)C5)c4O)c3)CC2)cs1 [Example 69, N-((1s,4s)-4-(2-(3′-(((3R,5S)-3,5-dimethylpiperazin-1-yl)methyl)-2′-hydroxybiphenyl-3-yloxy)-5-fluoronicotinamido)cyclohexyl)-2-methylthiazole-4-carboxamide] | 398 |
| Cc1nc(C(=O)N[C@H]2CC[C@@H](NC(=O)c3cc(F)cnc3Oc3cccc(-c4ccc(O)cc4CN4CCN(C(C)C)CC4)c3)CC2)cs1 [Example 25, N-((1s,4s)-4-(5-fluoro-2-(4′-hydroxy-2′-((4-isopropylpiperazin-1-yl)methyl)biphenyl-3-yloxy)nicotinamido)cyclohexyl)-2-methylthiazole-4-carboxamide] | 3160 |
| CC(C)c1nc(C(=O)N[C@H]2CC[C@@H](NC(=O)c3cc(F)cnc3Oc3cccc(-c4ccc(O)c(CN5C[C@@H](C)N[C@@H](C)C5)c4)c3)CC2)cs1 [Example 90, N-((1s,4s)-4-(2-(3′-(((3S,5R)-3,5-dimethylpiperazin-1-yl)methyl)-4′-hydroxybiphenyl-3-yloxy)-5-fluoronicotinamido)cyclohexyl)-2-isopropylthiazole-4-carboxamide] | 200 |
| Cc1nc(C(=O)N[C@H]2CC[C@@H](NC(=O)c3cc(F)cnc3Oc3cccc(-c4ccc(O)cc4CN(C)C)c3)CC2)cs1 [Example 9, N-((1s,4s)-4-(2-(2′-((dimethylamino)methyl)-4′-hydroxybiphenyl-3-yloxy)-5-fluoronicotinamido)cyclohexyl)-2-methylthiazole-4-carboxamide] | 31.6 |
| Cc1cc(C(=O)N[C@H]2CC[C@@H](NC(=O)c3cc(F)cnc3Oc3cccc(-c4cccc(CCN5CCNCC5)c4)c3)CC2)nn1C [Example 102, N-((1s,4s)-4-(1,5-dimethyl-1H-pyrazole-3-carboxamido)cyclohexyl)-5-fluoro-2-(3′-(2-(piperazin-1-yl)ethyl)biphenyl-3-yloxy)nicotinamide] | 39.8 |
| Cc1cccc2nc(C(=O)N[C@H]3CC[C@@H](NC(=O)c4cc(F)cnc4Oc4cccc(-c5ccc(CN(C)C)cc5)c4)CC3)cn12 [Example 47, N-((1s,4s)-4-(2-(4′-((dimethylamino)methyl)biphenyl-3-yloxy)-5-fluoronicotinamido)cyclohexyl)-5-methylimidazo[1,2-a]pyridine-2-carboxamide] | 794 |
| O=C(N[C@H]1CC[C@@H](NC(=O)c2cc(F)cnc2Oc2cccc(-c3ccc(O)cc3CN3CCOCC3)c2)CC1)c1cc2ccccc2nc1O [Example 42, N-((1s,4s)-4-(5-fluoro-2-(4′-hydroxy-2′-(morpholinomethyl)biphenyl-3-yloxy)nicotinamido)cyclohexyl)-2-hydroxyquinoline-3-carboxamide] | 50.1 |
| Cc1csc(C(=O)N[C@H]2CC[C@@H](NC(=O)c3cc(F)cnc3Oc3cccc(-c4ccc(CN5C[C@@H](C)N[C@@H](C)C5)cc4CN4CCSCC4)c3)CC2)n1 [Example 192, N-((1s,4s)-4-(2-(4′-(((3S,5R)-3,5-dimethylpiperazin-1-yl)methyl)-2′-(thiomorpholinomethyl)biphenyl-3-yloxy)-5-fluoronicotinamido)cyclohexyl)-4-methylthiazole-2-carboxamide] | 20 |
| Cc1cc(C(=O)N[C@H]2CC[C@@H](NC(=O)c3cc(F)cnc3Oc3cccc(-c4ccc(CCCN5C[C@@H](C)N[C@@H](C)C5)cc4)c3)CC2)[nH]n1 [Example 156, 2-(4′-(3-((3S,5R)-3,5-Dimethylpiperazin-1-yl)propyl)biphenyl-3-yloxy)-5-fluoro-N-((1s,4s)-4-(3-methyl-1H-pyrazole-5-carboxamido)cyclohexyl)nicotinamide] | 126 |
| Cc1cc(CN[C@H]2CC[C@@H](NC(=O)c3cc(F)cnc3Oc3cccc(-c4ccc(O)cc4CN4CCOCC4)c3)CC2)nn1C [Example 3, N-((1s,4s)-4-((1,5-dimethyl-1H-pyrazol-3-yl)methylamino)cyclohexyl)-5-fluoro-2-(4′-hydroxy-2′-(morpholinomethyl)biphenyl-3-yloxy)nicotinamide trifluoroacetate] | 1260 |
| Cc1csc(C(=O)N[C@H]2CC[C@@H](NC(=O)c3cc(F)cnc3Oc3cccc(-c4ccc(CN5C[C@@H](C)N[C@@H](C)C5)cc4CN4CCOCC4)c3)CC2)n1 [Example 144, N-((1s,4s)-4-(2-(4′-(((3S,5R)-3,5-dimethylpiperazin-1-yl)methyl)-2′-(morpholinomethyl)biphenyl-3-yloxy)-5-fluoronicotinamido)cyclohexyl)-4-methylthiazole-2-carboxamide] | 31.6 |
| Cc1csc(C(=O)N[C@H]2CC[C@@H](NC(=O)c3cc(F)cnc3Oc3cccc(-c4ccc(CCN5CCNCC5)cc4)c3)CC2)n1 [Example 184, N-((1s,4s)-4-(5-Fluoro-2-(4′-(2-(piperazin-1-yl)ethyl)biphenyl-3-yloxy)nicotinamido)cyclohexyl)-4-methylthiazole-2-carboxamide] | 39.8 |
| Cc1cc(C(=O)N[C@H]2CC[C@@H](NC(=O)c3cc(F)cnc3Oc3cccc(-c4ccc(CCN5CCN(C(C)C)CC5)cc4)c3)CC2)nn1C [Example 83, N-((1s,4s)-4-(1,5-dimethyl-1H-pyrazole-3-carboxamido)cyclohexyl)-5-fluoro-2-(4′-(2-(4-isopropylpiperazin-1-yl)ethyl)biphenyl-3-yloxy)nicotinamide] | 25.1 |
| CC(C)c1nc(C(=O)N[C@H]2CC[C@@H](NC(=O)c3cc(F)cnc3Oc3cccc(-c4ccc(CN5C[C@@H](C)N[C@@H](C)C5)cc4CN4CCOCC4)c3)CC2)cs1 [Example 190, N-((1s,4s)-4-(2-(4′-(((3S,5R)-3,5-dimethylpiperazin-1-yl)methyl)-2′-(morpholinomethyl)biphenyl-3-yloxy)-5-fluoronicotinamido)cyclohexyl)-2-isopropylthiazole-4-carboxamide] | 39.8 |
| O=C(N[C@H]1CC[C@@H](NC(=O)c2cc(F)cnc2Oc2cccc(-c3ccc(CCCNCCCO)cc3)c2)CC1)c1cc2ccccn2n1 [Example 159, N-((1s,4s)-4-(5-Fluoro-2-(4′-(3-(3-hydroxypropylamino)propyl)biphenyl-3-yloxy)nicotinamido)cyclohexyl)pyrazolo[1,5-a]pyridine-2-carboxamide] | 50.1 |
| Cc1csc(C(=O)N[C@H]2CC[C@@H](NC(=O)c3cc(F)cnc3Oc3cccc(-c4ccc(O)cc4CN4CCOCC4)c3)CC2)n1 [Example 45, N-((1s,4s)-4-(5-fluoro-2-(4′-hydroxy-2′-(morpholinomethyl)biphenyl-3-yloxy)nicotinamido)cyclohexyl)-4-methylthiazole-2-carboxamide] | 15.8 |
| Cc1nc(C(=O)N[C@H]2CC[C@@H](NC(=O)c3cc(F)cnc3Oc3cccc(-c4cccc(CCCN5CCNCC5)c4)c3)CC2)cs1 [Example 131, N-((1s,4s)-4-(5-fluoro-2-(3′-(3-(piperazin-1-yl)propyl)biphenyl-3-yloxy)nicotinamido)cyclohexyl)-2-methylthiazole-4-carboxamide] | 126 |
